The target in this assay is prostate-specific membrane antigen (PSMA) (Homo sapiens, UniProt Q04609). Briefly: purified PSMA, PABGgG hydrolysis by HPLC. The class given is biochemical.
prostate-specific membrane antigen (PSMA), sequence (Q04609 whole entry): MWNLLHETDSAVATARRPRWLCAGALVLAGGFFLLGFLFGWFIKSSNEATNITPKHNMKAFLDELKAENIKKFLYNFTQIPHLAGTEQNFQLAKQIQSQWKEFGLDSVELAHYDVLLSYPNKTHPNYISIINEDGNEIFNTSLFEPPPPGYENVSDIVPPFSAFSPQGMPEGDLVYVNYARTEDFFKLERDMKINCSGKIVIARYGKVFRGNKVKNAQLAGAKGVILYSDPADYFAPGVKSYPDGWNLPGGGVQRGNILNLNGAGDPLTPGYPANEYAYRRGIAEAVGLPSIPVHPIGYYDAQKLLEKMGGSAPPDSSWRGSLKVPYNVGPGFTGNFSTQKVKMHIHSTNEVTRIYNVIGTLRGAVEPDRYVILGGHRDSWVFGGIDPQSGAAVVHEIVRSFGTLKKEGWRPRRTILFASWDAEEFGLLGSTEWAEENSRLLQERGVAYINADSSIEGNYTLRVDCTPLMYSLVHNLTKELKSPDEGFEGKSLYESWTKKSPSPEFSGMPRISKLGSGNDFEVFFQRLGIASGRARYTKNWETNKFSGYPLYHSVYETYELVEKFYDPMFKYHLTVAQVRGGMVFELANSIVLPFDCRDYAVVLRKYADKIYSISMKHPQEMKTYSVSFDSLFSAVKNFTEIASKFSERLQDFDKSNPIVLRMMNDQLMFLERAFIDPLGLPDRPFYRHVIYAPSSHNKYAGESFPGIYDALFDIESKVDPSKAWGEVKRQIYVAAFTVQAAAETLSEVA

In general, IC50 refers to the concentration that gives 50% inhibition. Low readings indicate higher potency, high ones lower potency. For the substance DBCO-PEG4-CTT-54 [compound 5], the IC50 was 1 nM.

The substance DBCO-PEG4-CTT-54.2 [compound 6] yielded a concentration for half-maximal inhibition (IC50) of 6.6 nM.

These data come from paper PMC4414331 (The Prostate, 2012).
